# Measurements reported in US20240124422A1, “MUTANT PI3K-ALPHA INHIBITORS AND THEIR USE AS PHARMACEUTICALS” (Prelude Therapeutics Incorporated, priority 2022, published 2024).
# pIC50: −log10 of the molar value.
# System: phosphorylation of AKT on Ser473 as a readout of the PI3K pathway in T-47D (heterozygous PIK3CA H1047R) cells
# Assay: PI3K pathway activation assay, pAKT Ser473 HTRF, T-47D cells
# Format: cell-based
# Details: Homo sapiens, T47D, 2 h, two hours of treatment
# Protocol: The inhibitory activity of compounds was evaluated by measuring phosphorylation of AKT on Ser473 as a readout of the PI3K pathway using HTRF (CisBio catalog number: 64AKSPE). These studies were conducted in the T-47D (heterozygous PIK3CA H1047R) and SKBR3 (PIK3CA WT) cell lines. Cells were maintained in a 37° C. incubator at 5% CO2 in the following media: T-47D: RPMI 1640, ATCC© Modification (Gibco, A10491-01) supplemented with 10% v/v FBS (Gibco, 26140-079), 1% penicillin streptomycin (Gibco, 15140-122), and 7.4 ug/mL insulin (MilliporeSigma, I9278); SKBR3: McCoy's 5a (Modified) Medium (Gibco, 16600-082) supplemented with 10% v/v FBS (Gibco, 26140-079). Cells were seeded in 384-well plates at a density of 4,000 cells/well. Compounds dissolved in DMSO were added using a digital dispense (D300E, Tecan) 10-point serial dilution. After two hours of treatment, cells were lysed for thirty minutes and then incubated with detection reagents per HTRF kit material and manufacturer's instructions. Fluorescence signal was measured with a multimode plate reader (Envision 2105, Perkin Elmer). Fluorescent signal was normalized to background and DMSO controls to obtain percent inhibition/activity for each compound.
row,pIC50,SMILES
1,5.00 to 6.30,"C=CC(=O)N1CCCC1c1nc2c(C(C)Nc3ccccc3C(=O)O)cc(C)cc2c(=O)n1C (stereo not shown) [Example 71, 2-[1-[3,6-Dimethyl-4-oxo-2-(1-prop-2-enoylpyrrolidin-2-yl)quinazolin-8-yl]ethylamino]benzoic acid]"
2,5.00 to 6.30,"Cc1cc(C(C)Sc2ccccc2C(=O)O)c2nc(N3Cc4ccccc4C3)n(C)c(=O)c2c1 (stereo not shown) [Example 13, 2-((1-(2-(isoindolin-2-yl)-3,6-dimethyl-4-oxo-3,4-dihydroquinazolin-8-yl)ethyl)thio)benzoic acid]"
3,5.00 to 6.30,"Cc1cc(C(C)Nc2ccccc2C(=O)O)c2nc(N3CCS(=O)(=O)CC3)n(C)c(=O)c2c1 (stereo not shown) [Example 56, 2-((1-(2-(1,1-dioxidothiomorpholino)-3,6-dimethyl-4-oxo-3,4-dihydroquinazolin-8-yl)ethyl)amino)benzoic acid]"
4,5.00 to 6.30,"Cc1cc(C(C)Nc2cc(Cl)nnc2C(=O)O)c2nc(N3CC4CC4C3)n(C)c(=O)c2c1 (stereo not shown) [Example 126, 4-((1-(2-(3-Azabicyclo[3.1.0]hexan-3-yl)-3,6-dimethyl-4-oxo-3,4-dihydroquinazolin-8-yl)ethyl)amino)-6-chloropyridazine-3-carboxylic acid]"
5,5.00 to 6.30,"CC(Nc1ccccc1C(=O)O)c1cc(C(F)F)cc2c(=O)n(C)c(N3CC4CC4C3)nc12 (stereo not shown) [Example 79, 2-((1-(2-(3-Azabicyclo[3.1.0]hexan-3-yl)-6-(difluoromethyl)-3-methyl-4-oxo-3,4-dihydroquinazolin-8-yl)ethyl)amino)benzoic acid]"
6,> 6.30,"Cc1cc(C(C)Nc2ccccc2C(=O)O)c2nc(N3CC4CCC4C3)n(C)c(=O)c2c1 (stereo not shown) [Example 112, 2-[1-[2-(3-azabicyclo[3.2.0]heptan-3-yl)-3,6-dimethyl-4-oxoquinazolin-8-yl]ethylamino]benzoic acid]"
7,5.00 to 6.30,"COCC(=O)N1CCN(c2nc3c(C(C)Nc4ccccc4C(=O)O)cc(C)cc3c(=O)n2C)CC1 (stereo not shown) [Example 93, 2-((1-(2-(4-(2-Methoxyacetyl)piperazin-1-yl)-3,6-dimethyl-4-oxo-3,4-dihydro-quinazolin-8-yl)ethyl)amino)benzoic acid]"
8,> 6.30,"CC(Nc1ccccc1C(=O)O)c1cc(Br)cc2c(=O)n(C)c(N3CCC(F)(F)CC3)nc12 (stereo not shown) [Example 74, 2-((1-(6-Bromo-2-(4,4-difluoropiperidin-1-yl)-3-methyl-4-oxo-3,4-dihydroquinazolin-8-yl)ethyl)amino)benzoic acid]"
9,5.00 to 6.30,"Cc1cc(C(C)Nc2ccccc2C(=O)O)c2nc(N3CC4CC3C4)n(C)c(=O)c2c1 (stereo not shown) [Example 117, 2-((1-(2-(2-Azabicyclo[2.1.1]hexan-2-yl)-3,6-dimethyl-4-oxo-3,4-dihydroquinazolin-8-yl)ethyl)amino)benzoic acid]"
10,> 6.30,"Cc1cc(C(C)Nc2ccccc2C(=O)O)c2nc(N3CCN(C(=O)c4ccc(C)nc4)CC3)n(C)c(=O)c2c1 (stereo not shown) [Example 94, 2-((1-(3,6-Dimethyl-2-(4-(6-methylnicotinoyl)piperazin-1-yl)-4-oxo-3,4-dihydro-quinazolin-8-yl)ethyl)amino)benzoic acid]"
11,5.00 to 6.30,"CCc1cc(C(C)Nc2ccccc2C(=O)O)c2nc(N3CC4CC4C3)n(C)c(=O)c2c1 (stereo not shown) [Example 78, 2-((1-(2-(3-Azabicyclo[3.1.0]hexan-3-yl)-6-ethyl-3-methyl-4-oxo-3,4-dihydroquinazolin-8-yl)ethyl)amino)benzoic acid]"
12,> 6.30,"Cc1cc(C(C)Nc2ccccc2C(=O)O)c2nc(N3C[C@@H]4[C@H](C3)[C@H]4C(=O)N(C)C(C)C)n(C)c(=O)c2c1 (stereo partly drawn) [Example 81, 2-((1-(2-((1R,5S,6R)-6-(Isopropyl(methyl)carbamoyl)-3-azabicyclo[3.1.0]hexan-3-yl)-3,6-dimethyl-4-oxo-3,4-dihydroquinazolin-8-yl)ethyl)amino)benzoic acid]"
13,5.00 to 6.30,"Cc1cc(C(C)Nc2ccccc2C(=O)O)c2nc(N3CCC4(CC3)CN(C(=O)OC(C)(C)C)C4)n(C)c(=O)c2c1 (stereo not shown) [Example 108, 2-[1-[3,6-dimethyl-2-[2-[(2-methylpropan-2-yl)oxycarbonyl]-2,7-diazaspiro[3.5]nonan-7-yl]-4-oxoquinazolin-8-yl]ethylamino]benzoic acid]"
14,5.00 to 6.30,"Cc1cc(C(C)Nc2ccc(C(F)(F)F)nc2C(=O)O)c2nc(N3CC4CC4C3)n(C)c(=O)c2c1 (stereo not shown) [Example 80, 3-((1-(2-(3-azabicyclo[3.1.0]hexan-3-yl)-3,6-dimethyl-4-oxo-3,4-dihydro-quinazolin-8-yl)ethyl)amino)-6-(trifluoromethyl)picolinic acid]"
15,> 6.30,"Cc1cc(C(C)Nc2ccccc2C(=O)O)c2nc(N3C[C@H]4CCC[C@H]4C3)n(C)c(=O)c2c1 (stereo partly drawn) [Example 113, 2-[1-[3,6-dimethyl-4-oxo-2-[(3aR,6aS)-3,3a,4,5,6,6a-hexahydro-1H-cyclopenta[c]pyrrol-2-yl]quinazolin-8-yl]ethylamino]benzoic acid]"
16,5.00 to 6.30,"C=CC(=O)Nc1c(C)cc(C(C)Nc2ccccc2C(=O)O)c2nc(N3CC4CC4C3)n(C)c(=O)c12 (stereo not shown) [Example 38, 2-((1-(5-acrylamido-2-(3-azabicyclo[3.1.0]hexan-3-yl)-3,6-dimethyl-4-oxo-3,4-dihydroquinazolin-8-yl)ethyl)amino)benzoic acid]"
17,5.00 to 6.30,"COc1cc(C(C)Nc2ccccc2C(=O)O)c2nc(N3CC4CC4C3)n(C)c(=O)c2c1 (stereo not shown) [Example 77, 2-((1-(2-(3-azabicyclo[3.1.0]hexan-3-yl)-6-methoxy-3-methyl-4-oxo-3,4-dihydroquinazolin-8-yl)ethyl)amino)benzoic acid]"
18,5.00 to 6.30,"Cc1cc(C(C)Nc2ccccc2C(=O)O)c2nc(N3CC4CC4C3)n(C(F)F)c(=O)c2c1 (stereo not shown) [Example 102, 2-((1-(2-(3-Azabicyclo[3.1.0]hexan-3-yl)-3-(difluoromethyl)-6-methyl-4-oxo-3,4-dihydroquinazolin-8-yl)ethyl)amino)benzoic acid]"
19,5.00 to 6.30,"Cc1cc(C(C)Nc2ccccc2C(=O)O)c2nc(N3CCCC34CC4)n(C)c(=O)c2c1 (stereo not shown) [Example 114, 2-((1-(3,6-dimethyl-4-oxo-2-(4-azaspiro[2.4]heptan-4-yl)-3,4-dihydroquinazolin-8-yl)ethyl)amino)benzoic acid]"
20,> 6.30,"Cc1cc(C(C)Nc2cccc(F)c2C(=O)O)c2nc(N3CC4CC4C3)n(C)c(=O)c2c1 (stereo not shown) [Example 121, 2-[1-[2-(3-Azabicyclo[3.1.0]hexan-3-yl)-3,6-dimethyl-4-oxoquinazolin-8-yl]ethylamino]-6-fluorobenzoic acid]"
21,> 6.30,"CSc1ccc(NC(C)c2cc(C)cc3c(=O)n(C)c(N4CC5CC5C4)nc23)c(C(=O)O)n1 (stereo not shown) [Example 124, 3-[1-[2-(3-Azabicyclo[3.1.0]hexan-3-yl)-3,6-dimethyl-4-oxoquinazolin-8-yl]ethylamino]-6-methylsulfanylpyridine-2-carboxylic acid]"
22,5.00 to 6.30,"Cc1cc(C(C)Nc2ccccc2C(=O)O)c2nc(N3CCC(NC(=O)OC(C)(C)C)C3)n(C)c(=O)c2c1 (stereo not shown) [Example 110, 2-[1-[3,6-dimethyl-2-[3-[(2-methylpropan-2-yl)oxycarbonylamino]pyrrolidin-1-yl]-4-oxoquinazolin-8-yl]ethylamino]benzoic acid]"

row,SMILES,pIC50
1,"Cc1cc(C(C)Nc2ccccc2C(=O)O)c2nc(N3CC4CC(C4)C3)n(C)c(=O)c2c1 (stereo not shown) [Example 116, 2-((1-(2-(3-Azabicyclo[3.1.1]heptan-3-yl)-3,6-dimethyl-4-oxo-3,4-dihydroquinazolin-8-yl)ethyl)amino)benzoic acid]",> 6.30
2,"Cc1cc(C(C)Nc2cc(F)ccc2C(=O)O)c2nc(N3Cc4ccccc4C3)n(C)c(=O)c2c1 (stereo not shown) [Example 32, 4-fluoro-2-((1-(2-(isoindolin-2-yl)-3,6-dimethyl-4-oxo-3,4-dihydroquinazolin-8-yl)ethyl)amino)benzoic acid]",> 6.30

# Same assay, conditions: two hours of treatment, read-out: T47D pAKT IC50
row,SMILES,pIC50
1,"Cc1cc(C(C)Nc2ccccc2C(=O)O)c2nc(N3C[C@@H]4C(NC(=O)OCCN5CCOCC5)[C@@H]4C3)n(C)c(=O)c2c1 (stereo partly drawn) [Example 61, 2-((1-(3,6-dimethyl-2-((1R,5S,6s)-6-(((2-morpholinoethoxy)carbonyl)amino)-3-azabicyclo[3.1.0]hexan-3-yl)-4-oxo-3,4-dihydroquinazolin-8-yl)ethyl)amino)benzoic acid]",5.00 to 6.30
2,"COc1ccc(OC(=O)NC2[C@H]3CN(c4nc5c(C(C)Nc6ccccc6C(=O)O)cc(C)cc5c(=O)n4C)C[C@@H]23)cc1 (stereo partly drawn) [Example 62, 2-((1-(2-((1R,5S,6s)-6-(((4-methoxyphenoxy)carbonyl)amino)-3-azabicyclo[3.1.0]hexan-3-yl)-3,6-dimethyl-4-oxo-3,4-dihydroquinazolin-8-yl)ethyl)amino)benzoic acid]",5.00 to 6.30
3,"CNC(=O)C1[C@H]2CN(c3nc4c(C(C)Nc5ccccc5C(=O)O)cc(C)cc4c(=O)n3C)C[C@@H]12 (stereo partly drawn) [Example 89, 2-((1-(3,6-Dimethyl-2-((1R,5S,6R)-6-(methylcarbamoyl)-3-azabicyclo[3.1.0]hexan-3-yl)-4-oxo-3,4-dihydroquinazolin-8-yl)ethyl)amino)benzoic acid]",5.00 to 6.30
4,"CON(C)C(=O)C1[C@H]2CN(c3nc4c(C(C)Nc5ccccc5C(=O)O)cc(C)cc4c(=O)n3C)C[C@@H]12 (stereo partly drawn) [Example 83, 2-((1-(2-((1R,5S,6R)-6-(Methoxy(methyl)carbamoyl)-3-azabicyclo[3.1.0]hexan-3-yl)-3,6-dimethyl-4-oxo-3,4-dihydroquinazolin-8-yl)ethyl)amino)benzoic acid]",> 6.30
